# Assay results: patent US4474775A, “Pyrazol-4-yl phosphates and insecticidal and acaricidal use” (priority 1979, dated 1984)
# Experiments:
# Tetranychus urticae = test: Effectiveness against Tetranychus urticae (Testing Example 4); format: in vivo; settings: decrease rate grade, 500 ppm spray on kidney bean plant; for Efficacy grading, 2nd day: 2nd day after spraying; for Efficacy grading, 7th day: 7th day after spraying
# Description: Testing Example 4: Effectiveness against Tetranychus urticae
# A test compound was processed into an emulsifiable concentrate in accordance with the formulation of Example 6, and diluted with water (with Dyne®, spreading agent, as diluted 3000-fold) to prepare a 500 ppm aqueous solution. Ten female adults of Tetranychus urticae) were infected on the seedling of a kidney bean plant water-cultured in a polyethylene cup, and the cups were placed in a glass chamber (28° C.) for 24 hours, followed by spraying 20 ml of the aqueous solution on the kidney bean plant. After the sprayed cup was placed again in the glass chamber, the number of the adults and larvae living on the leaves was counted on the 2nd and 7th days after spraying. The test was repeated twice, and the test results are tabulated in Table 5 in terms of the efficacy grading as determined by calculating a decrease rate by the following equation:
# Decrease rate (%)=[(number of mites tested-number of larvae living on the day of inspection)/(number of mites tested)]×100
# [1] = Oral acute toxicity in mice (Toxicological Test); settings: mouse, in vivo, five-week aged ddY-SLC strained male mice
# Text: Below tabulated are the oral acute toxicity values obtained with five-week aged, ddY-SLC strained male mice: […]
# Unaspis yanonensis = test: Effectiveness against Unaspis yanonensis (Testing Example 3); format: in vivo; settings: 480 h, second-instar larvae, 500 ppm wettable powder suspension sprayed, 20th day after spraying
# Description: Testing Example 3: Effectiveness of Unaspis yanonensis
# A test compound was processed into a wettable powder in accordance with the formulation of Example 7, and was diluted with water (with Dyne®, spreading agent, as diluted 3000-fold) to prepare a 500 ppm aqueous suspension. 20 ml of the aqueous suspension was sprayed on second-instar larvae (10 to 50 of the number parasitized) of Unaspis yanonensis on a seedling of Citrus trifoliate (2 months after germination) being planted in a pot (9 cm in diameter). After the sprayed pot was transferred to a greenhouse (25° to 30°C.), adult insects were counted on the 20th day after spraying. Mortality (%) is calculated by the following equation: [formula]
# Spodoptera litura = test: Effectiveness against Spodoptera litura (Testing Example 2); format: in vivo; settings: second-instar larvae, 500 ppm spray on soybean, 28° C., 24 hours
# Description: Testing Example 2: Effectiveness against Spodoptera litura
# Twenty milliliters of a 500 ppm, water-diluted solution (with Dyne® Takeda Chem. Ind. Ltd., spreading agent, as diluted 3000-fold) of the test compound (the emulsifiable concentrate of Example 6) was sprayed on grown seedlings (10 days after germination) of soybean plant water-cultured in a polyethylene cup by the use of a spray gun (nozzle pressure of 1 kg/cm^2 gauge) in a spraying chamber. 2 hours after spraying, two main leaves of soybean plant were cut off and were placed into two cups (6 cm in diameter and 4 cm in depth), respectively, and ten second-instar larvae of Spodoptera litura were liberated. The cups were left in the room (28° C.) for 24 hours, and the dead larvae were counted.
# Laodelphax striatellus [2] = test: Effectiveness against Laodelphax striatellus, adults, dust on paddy-rice plant (Testing Example 1 (b)); format: in vivo; settings: small brown planthopper, adults on dusted rice, 24 h
# Description: (§1) Testing Example 1: Effectiveness against Laodelphax striatellus
# (b) A test compound was processed into a dust preparation in accordance with the formulation of Example 8, and […] of the preparation was dusted on the potted paddy-rice plant (1/5,000 a) by the Berger Duster method. After dusting, leaves (15 cm long) of the paddy rice were cut off and were placed in a test tube containing 1 ml of water in the bottom, and ten adults of Laodelphax striatellus were released therein. After allowing the test tube to stand in the room (28° C.) for 24 hours, the dead insects were counted.
# Laodelphax striatellus [3] = test: Effectiveness against Laodelphax striatellus, third-instar larvae, root dip (Testing Example 1 (a)); format: in vivo; settings: 40 ppm emulsifiable concentrate dilution, root dip 2 hours, 28° C., 24 hours, read-out: Mortality (I)
# Description: as §1
# (a) A test compound was processed into an emulsifiable concentrate in accordance with the formulation of Example 6, followed by diluting with water to prepare a treating solution of a 40 ppm concentration. 2.5 ml of the treating solution was placed into a test tube (with 1.7 cm of diameter, 4 cm deep), in which three seedlings of a paddy-rice plant (on the 7th day after germination) were allowed to stand so their root portions were dipped into the solution for 2 hours. The seedlings were then transferred into a test tube having 1 ml water placed in the bottom, and ten third-instar larvae of Laodelphax striatellus were released. After allowing the test tube to stand in the room (28° C.) for 24 hours, the dead larvae were counted. The test is repeated twice, and the test results are tabulated, in terms of mortality, in Table 2 (I).
SMILES,"Efficacy grading, 2nd day (Tetranychus urticae)","Efficacy grading, 7th day (Tetranychus urticae)",LD50 [1] [mg/kg],mortality at 500 µg/mL (Unaspis yanonensis) [%],mortality at 500 ppm (Spodoptera litura) [%],Mortality (II) (Laodelphax striatellus [2]) [%],mortality at 40 µg/mL (Laodelphax striatellus [3]) [%]
CCCOP(=S)(OCC)Oc1cnn(-c2ccccc2)c1 (centres unmarked) [Compound No. 3],3 (Not less than 90),0 (Not more than 20),> 300,79,,,
"CCCSP(=O)(OCC)Oc1cnn(-c2ccccc2)c1 (centres unmarked) [Compound No. 4, O-ethyl-O-(1-phenylpyrazol-4-yl)-S-n-propylphosphorothiolate]",3 (Not less than 90),3 (Not less than 90),> 300,84,100,,
CCCSP(=O)(OCC)Oc1cnn(-c2ccccc2Cl)c1 (centres unmarked) [compound 12],3 (Not less than 90),3 (Not less than 90),> 300,71,100,,
CCOP(=S)(OCC)Oc1cnn(-c2ccc(C)cc2C)c1 [compound 34],,,> 300,79,,,
CCOP(=S)(OCC)Oc1cnn(-c2ccccc2)c1 [compound 2],,,> 300,75,,,
CCCSP(=O)(OCC)Oc1cnn(-c2cc(Cl)cc(Cl)c2)c1 (centres unmarked) [compound 33],3 (Not less than 90),3 (Not less than 90),> 300,70,100,65,100
"CCCSP(=O)(OCC)Oc1cnn(-c2ccc(Cl)c(Cl)c2)c1 (centres unmarked) [Compound No. 31, O-ethyl-O-[3,4-dichlorophenyl)pyrazol-4-yl]-S-n-propyl phosphorothiolate]",3 (Not less than 90),3 (Not less than 90),> 300,75,100,90,100
CCCSP(=S)(OCC)Oc1cnn(-c2ccc(OC)cc2)c1 (centres unmarked) [compound 25],3 (Not less than 90),3 (Not less than 90),> 300,100,100,,
CCCSP(=O)(OCC)Oc1cnn(-c2ccc(C)cc2C)c1 (centres unmarked) [compound 35],3 (Not less than 90),3 (Not less than 90),~300,82,100,,
COP(=S)(OC)Oc1cnn(-c2ccccc2)c1 [Compound No. 1],3 (Not less than 90),3 (Not less than 90),> 300,86,,,
CCCSP(=O)(OCC)Oc1cnn(-c2ccc(Cl)cc2Cl)c1 (centres unmarked) [compound 29],3 (Not less than 90),3 (Not less than 90),~300,97,100,30,95
